pIC50: −log10 of the molar value.
Target: T1, full-length human PKC-α enzyme (Homo sapiens, UniProt P17252)
T1 construct: performed using full-length human PKC-α enzyme (Upstate Biotechnology); purchased Upstate Biotechnology
Assay: Assessment of PKC-α Inhibitory Activity (MALDI-TOF kinase assay)
Assay type: biochemical
Conditions: full-length human PKC-α 0.12 μg/ml; ATP 45 μM; neurogranin 28-43 peptide 22 μM; 30 minute incubation at 24° C.; MALDI-TOF readout
Method: Measurement of PKC-α enzyme activity is performed using full-length human PKC-α enzyme (Upstate Biotechnology) at a final concentration of 0.12 μg/ml in a kinase assay buffer (0.09 mg/ml bovine serum albumin (BSA), 210 μM ethylenediaminetetraacetic acid (EDTA), 360 μM CaCl2, 1 mM Tris-HCl, pH=7.5, 0.5 mM MgCl2, 0.015 mg/ml phosphatidylserine and 0.015 mg/ml diacylglycerol). The reaction is initiated by addition of adenosine triphosphate (ATP; final concentration 45 μM) and a peptide substrate consisting of amino acids 28-43 (Ala-Ala-Lys-Ile-Gln-Ala-Ser-Phe-Arg-Gly-His-Met-Ala-Arg-Lys-Lys) of neurogranin (Promega; final concentration 22 μM). After a 30 minute incubation at 24° C. the reaction is terminated by adding 5 μL of the reaction mixture into 50 μL of MALDI matrix solution (5 mg/ml α-cyano-4-hydroxycinnamic acid in 50% Acetonitrile/H2O, 0.1% TFA, 5 mM ammonium phosphate). Two microliters of the stopped reaction mixture is transferred onto a MALDI-TOF mass spectrometer target plate.
All spectra are collected on an Applied Biosystems 4700 Proteomics Analyzer MALDI-TOF MS equipped with a Nd:YAG laser (355 nm, 3 ns pulse width, 200 Hz repetition rate) in negative ion reflector mode. The system is operated with 4700 Explorer software, version 3.0. Automated acquisition parameters are adjusted to capture and average only those individual spectra within defined success criteria. Specifically, signal intensities for the substrate peptide are set to a minimum threshold of 3000 counts and a maximum intensity of 65,000 counts. This ensured that neither null spectra nor saturated spectra are averaged into the final readout. Between 1000 and 1500 laser shots are averaged for each sample. Data are collected in triplicate from 3 successive days to capture the maximum variability related to preparation of enzyme reaction, transfer of samples to MALDI target plates, data collection, and data extraction.
The isotope cluster areas for each peptide substrate and product peaks are extracted into a Microsoft Excel worksheet from the 10×10 array of spectral data simultaneously using the automated analysis function provided within the 4700 Explore software. The isotope cluster area is defined by the software algorithm based on the molecular weight and the general elemental composition of the peptides. The percent conversion (% C) of substrate to product is calculated as the cluster area of the product (P) divided by the sum of the cluster areas of the substrate (S) and the product multiplied by 100 as represented by the following equation: […]
For dose-dependent inhibition studies, the inhibition is plotted as a % Maximal Activity (% MA). Equation one is a measure of the ratio of product to substrate then solving for the % C. However, to measure inhibition of the enzyme activity, one must measure the degree to which that activity (% C) is curtailed. Thus the dose-dependant inhibition data is plotted as % MA where the maximal activity is the % C measured in control reactions with no inhibitor as represented by the following equation: […]

SMILES	pIC50
CN(C)CCCNc1ccnc(Nc2cccc(Cl)c2)n1 [No. 3, N^2-(3-chlorophenyl)-N^4-[3-(dimethylamino)propyl]pyrimidine-2,4-diamine]	6.51
CN(C)CC(C)(C)CNc1ccnc(Nc2cccc(C(F)(F)F)c2)n1 [No. 75, N^4-[3-(dimethylamino)-2,2-dimethylpropyl]-N^2-[3-(trifluoromethyl)phenyl]pyrimidine-2,4-diamine]	8.40
CN(C)CCCNc1ccnc(Nc2ccc(Cl)c(Cl)c2)n1 [compound 15]	7.82
CN(C)CCCNc1ccnc(Nc2cccc(Cl)c2F)n1 [compound 25]	7.64
CN(C)CCCNc1ccnc(Nc2ccc(F)c(Cl)c2)n1 [compound 27]	8.10
CN(C)CCCNc1ccnc(Nc2ccc(F)c(F)c2)n1 [compound 33]	7.19
COc1cccc(Nc2nccc(NCCCN(C)C)n2)c1 [compound 51]	7.85
Cc1cccc(Nc2nccc(NCCCN(C)C)n2)c1 [compound 55]	7.40
Cc1cccc(Nc2nccc(NCCCN(C)C)n2)c1 [compound 58]	7.03
CN(C)CCNc1ccnc(Nc2cccc(Cl)c2)n1 [compound 69]	7.08
CN(C)CCCCNc1ccnc(Nc2cccc(Cl)c2)n1 [compound 81]	7.92
Cc1nc(-c2cccc(Nc3nccc(NCCCN(C)C)n3)c2)cs1 [compound 105]	7.32

Molecules with a higher pIC50, results first:

pIC50	SMILES
9.10	CN(C)CCCCNc1ccnc(Nc2cccc(Cl)c2)n1 [No. 81, N^2-(3-chlorophenyl)-N^4-[4-(dimethylamino)butyl]pyrimidine-2,4-diamine]
9.00	CCN(CC)CCCNc1ccnc(Nc2cccc(Cl)c2)n1 [compound 6]
8.52	Cc1ccc(Nc2nccc(NCCCN(C)C)n2)cc1Cl [compound 21]
9.30	CN(C)CCCNc1ccnc(Nc2cccc(C(F)(F)F)c2)n1 [compound 39]
8.52	CN(C)CCCNc1ccnc(Nc2ccc(Cl)c(C(F)(F)F)c2)n1 [compound 45]
9.40	CN(C)CCCNc1ccnc(Nc2cccc(-c3ccccc3)c2)n1 [compound 87]
